Assay results taken from patent US20070202079A1, “Therapeutic compositions and methods useful in modulating protein tyrosine phosphatases” (priority 2006, published 2007).

What was measured:
[1] = molecular target: T1, PRL-1 (Homo sapiens, UniProt Q93096); experiment: in vitro PTPase assay, recombinant PRL-1; format: biochemical; conditions: 0.1-100 μg/ml
T1 construct: cDNAs of human PRL-1, PRL-2 and PRL-3 coding region were derived by RT-PCR; made in house; host or cells: DH5a bacteria (E. coli)
T1 sequence (Q93096 whole entry): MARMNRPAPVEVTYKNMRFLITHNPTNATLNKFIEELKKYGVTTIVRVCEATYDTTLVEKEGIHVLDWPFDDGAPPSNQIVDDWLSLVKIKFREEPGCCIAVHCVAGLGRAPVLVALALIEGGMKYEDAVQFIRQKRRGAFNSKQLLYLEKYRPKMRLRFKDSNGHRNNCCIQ
Excerpt: (§1) Sodium stibogluconate, suramin, sodium orthovanadate and GST fusion protein of SHP-1 have been described previously (Pathak et al., J. Immunol. 167, 3391 (2001)). Meglumine antimonate was obtained from Aventis. cDNAs of human PRL-1, PRL-2 and PRL-3 coding region were derived by RT-PCR from H9 cells (Safai, et al., Lancet 1, 1438 (1984)) and inserted in frame into the pGEX vector. cDNA of PRL-1R86 was generated by recombinant DNA technique using PRL-1 cDNA as template following established procedures (Jiao, et al., Mol. Cell. Biol. 16, 6985 (1996)). […]
(§2) In vitro PTPase assays were used to determine the effects of compounds on recombinant PTPases, following established procedures using a synthetic phosphotyrosine peptide or DiFMUP as the substrate (Pathak et al., J. Immunol. 167, 3391 (2001)). […] PTPase activity of individual reactions was measured by adding 100 μL of malachite green solution (UBI) and then quantifying the amounts of free phosphate cleaved by the PTPase from the peptide substrate by spectrometry (OD660 nm). […] Relative PTPase activities were calculated based on the formula: (PTPase activity in the presence of an inhibitory compound/PTPase activity in the absence of the compound)× 100%. […]

[2] = molecular target: T2, PRL-2 (Homo sapiens, UniProt Q12974); experiment: in vitro PTPase assay, recombinant PRL-2; format: biochemical
T2 construct: cDNAs of human PRL-1, PRL-2 and PRL-3 coding region were derived by RT-PCR; made in house; host or cells: DH5a bacteria (E. coli)
T2 sequence (Q12974 whole entry): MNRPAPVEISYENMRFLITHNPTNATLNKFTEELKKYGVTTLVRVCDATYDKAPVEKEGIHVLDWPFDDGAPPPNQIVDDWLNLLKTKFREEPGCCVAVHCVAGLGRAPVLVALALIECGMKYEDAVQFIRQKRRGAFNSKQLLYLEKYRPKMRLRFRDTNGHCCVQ
Excerpt: as §1, §2

[3] = tested on: GSTm8; experiment: in vitro PTPase assay, GSTm8; format: biochemical; conditions: 3-4 μg/ml or 10-100 μg/ml
Excerpt: In vitro PTPase assays were used to determine the effects of levamisole (Sigma), pentamidine (American Pharmaceutical Partners, Inc.), and ketoconazole (Sigma) on recombinant PTPases, following established procedures (Pathak et al., J. Immunol. 167, 3391 (2001); Pathak et al., Leukemia 16, 2285 (2002), Yi et al., J. Immunol. 169, 5978 (2002)) using a synthetic phosphotyrosine peptide or DiFMUP as the substrate as detailed above in section I.A.2.

[4] = tested on: LoVo; experiment: LoVo cell growth, MTT; format: cell-based, human; conditions: 100 μg/ml, day 6
Description: NIH3T3 (Yi, et al., Blood 85, 87 (1995)), WM9 (Forsberg, et al., Proc. Nat. Acad Sci. USA 90, 393 (1993)), DU145 (Mickey, et al., Cancer Res. 37, 4049 (1977)), LoVo (Drewinko, et al., Cancer Res. 36, 467 (1976)), HEY (Buick, et al., Cancer Res. 45, 3668 (1985)), U251 (Yoshida, et al., Cancer 50, 410 (1982)), A549 (Giard, et al., J. Natl. Cancer Inst. 51, 1417 (1973)) and SK-N-SH (Helson, et al., Cancer Res. 35, 2594 (1975)) cell lines have been described and were cultured in RPMI 1640 supplemented with 10% fetal calf serum (FCS). For measurement of sodium stibogluconate effects on cell growth in vitro, cells were cultured in the absence (−) or presence (+) of various amounts of sodium stibogluconate for 6 days with viable cells quantified by MTT assays (Mosmann, J. Immunol. Methods 65, 55 (1983)). Percentages of growth inhibition by sodium stibogluconate were calculated (.+−.x%).

[5] = tested on: C42; experiment: C42 cell growth, MTT; format: cell-based, human
Description: For cell proliferation assays, cells were grown in 10% FCS culture medium containing various amounts of IFNs and/or sodium stibogluconate in 96 well plates and cultured at 37° C. for 3 or 6 days as indicated. The numbers of viable cells in proliferation assays were determined by MTT assays as described in Phatak et al., J. Immunol. 167, 3391 (2001).

[6] = tested on: Jurkat cells; experiment: IFN-gamma secretion by Jurkat cells, ELISA; format: cell-based, human; conditions: 16 hours
Description: Jurkat cells were cultured in the absence or presence of various amounts of SSG for 16 hours. The cells and culture medium supernatants were separated by centrifugation (1,000 g, 10 min). The amounts of IFN-gamma in the culture medium supernatants were quantified using an ELISA kit (R.D. system, Minneapolis, Minn.) following the manufacturer's protocol.

In the case of CC(=O)N1CCN(c2ccc(OCC3COC(Cn4ccnc4)(c4ccc(Cl)cc4Cl)O3)cc2)CC1 (stereo not drawn) [ketoconazole], the “retained PRL-1 PTPase activity” value [1] is reported as 60-70%, the “activity against PRL-2” value [2] is reported as “not effective” and the “inhibitory activity against GSTm8” value [3] is reported as “no obvious inhibitory activity”.

For N=C(N)c1ccc(OCCCCCOc2ccc(C(=N)N)cc2)cc1 [pentamidine], the “retained PRL-1 PTPase activity” value [1] was 70-80%, the “activity against PRL-2” value [2] was “not effective” and the “inhibitory activity against GSTm8” value [3] was “no obvious inhibitory activity”.

For O.O.O.O.O.O.O.O.O.O=C([O-])[C@@H]1[O][Sb]2([O-])([O][Sb]34([OH])[O][C@H]([C@H](O)CO)[C@H]([O]3)[C@H](C(=O)[O-])[O]4)[O][C@H]([C@H](O)CO)[C@@H]1[O]2.[Na+].[Na+].[Na+] [sodium stibogluconate], the “cell killing of LoVo” value [4] was “near-complete cell killing”, the “sensitivity of C42 cells” value [5] was “highly resistant” and the IFN-gamma secretion [6] was “increased amounts of IFN-gamma”.
